Measurements reported in patent US20260174875A1 (Novo Nordisk A/S, priority 2023, published 2026).
Where two headings read alike, the source gives them in different places. Numbered stars: 1 amine (or outer) side, 2 acyl side, 3 side chain; on linkers, the order of the positions; unused ones are H or OH. Square brackets hold non-standard residues; d marks the D form. Side chains are listed from the residue outwards. * marks the point of attachment. C18 diacid = O=C(O)CCCCCCCCCCCCCCCCC(=O)*; γGlu = O=C(O)[C@H](CCC(=O)[*:2])N[*:1]; Chem. 28 = not defined here; AEEA = NCCOCCOCC(=O)O; Aib = CC(C)(N)C(=O)O

T1: human GIP receptor (hGIPR) (Homo sapiens, UniProt P48546)
T1 construct: expressed in transfected cells
T1 sequence (P48546 22-466): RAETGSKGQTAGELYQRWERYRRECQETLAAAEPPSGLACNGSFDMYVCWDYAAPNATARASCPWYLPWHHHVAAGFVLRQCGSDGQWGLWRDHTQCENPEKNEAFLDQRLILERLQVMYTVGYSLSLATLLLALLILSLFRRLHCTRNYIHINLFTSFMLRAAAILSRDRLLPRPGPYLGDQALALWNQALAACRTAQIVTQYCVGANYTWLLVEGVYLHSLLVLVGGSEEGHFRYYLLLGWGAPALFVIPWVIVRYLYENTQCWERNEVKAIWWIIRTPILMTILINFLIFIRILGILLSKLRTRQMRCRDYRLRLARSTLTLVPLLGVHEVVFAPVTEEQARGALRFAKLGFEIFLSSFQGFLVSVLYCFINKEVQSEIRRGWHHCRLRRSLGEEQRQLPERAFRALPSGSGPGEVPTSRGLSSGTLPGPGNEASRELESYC

T2: human amylin-3(a) receptor (human, UniProt P30988 25-474; O60896 24-148)
T2 sequence (looked up) 1: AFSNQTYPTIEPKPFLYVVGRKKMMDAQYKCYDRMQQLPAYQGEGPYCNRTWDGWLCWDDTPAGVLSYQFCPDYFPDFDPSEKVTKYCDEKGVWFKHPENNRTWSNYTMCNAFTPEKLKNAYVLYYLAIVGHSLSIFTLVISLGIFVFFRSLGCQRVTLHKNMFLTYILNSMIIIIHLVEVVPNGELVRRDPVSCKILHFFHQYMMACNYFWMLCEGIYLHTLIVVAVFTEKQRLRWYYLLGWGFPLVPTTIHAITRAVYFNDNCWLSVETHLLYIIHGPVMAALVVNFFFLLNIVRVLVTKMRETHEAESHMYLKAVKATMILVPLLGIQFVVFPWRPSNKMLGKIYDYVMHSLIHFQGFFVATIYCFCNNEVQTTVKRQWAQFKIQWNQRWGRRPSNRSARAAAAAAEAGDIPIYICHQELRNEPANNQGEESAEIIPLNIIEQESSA
T2 sequence (looked up) 2: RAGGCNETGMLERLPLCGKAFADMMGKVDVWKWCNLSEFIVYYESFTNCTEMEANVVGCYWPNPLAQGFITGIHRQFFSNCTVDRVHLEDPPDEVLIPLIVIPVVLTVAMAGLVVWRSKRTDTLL

T3: human GIP receptor (human, UniProt P48546 22-466)
T3 sequence (looked up): T1 sequence (P48546 22-466)

B1: Compound 40 (peptide)
peptide: Y[Aib]EGTFTSDYSILLEEQAAREFIEWLLAGGPSK(Chem. 28)GGGGEGGGEGEASHLSTAQTQRLSAELHELATLPRTETGSGSP-NH2
modifications: reading uncertain; also: VARIANT 50 Aib (position 50 is T), mods: Aib at 2
B2: Compound 22 (peptide)
peptide: H[Aib]HGTFTSDYSILLEEQAAREFIEWLLAGGPSK(Chem. 28)GAPPPSLAQTLAQTLASELSTAALGRLSAELHELATLPRTETGSGSP-NH2
modifications: reading uncertain
B3: Compound 21 (peptide)
peptide: Y[Aib]EGTFTSDYSILLEEQAAREFIEWLLAGGPSK(Chem. 28)GALAQTLAQTLASELSTAALGRLSAELHELATLPRTETGSGSP-NH2
modifications: reading uncertain
B4: Compound 44 (peptide)
peptide: H[Aib]HGTFTSDYSILLEEQAAREFIEWLLAGGPSK(Chem. 28)GALAQTLGTNEASELSTAALGRLSAELHRLATLPRTETGSGSP-NH2
modifications: reading uncertain
B5: Compound 19 (peptide)
peptide: Y[Aib]EGTFTSDYSILLEEQAAREFIEWLLAGGPSK(Chem. 28)GEASELSTAALGRLSAELHRLATLPRTETGSGSP-NH2
modifications: reading uncertain
B6: Compound 13 (peptide)
peptide: Y[Aib]EGTFTSDYSILLEEQAAREFIEWLLAGGPSK([AEEA-AEEA-γGlu-C18 diacid])GAPPPSGGGGASELSTAALGRLSAELHRLATLPRTETGSGSP-NH2

Columns and labels:
[1] = molecular target: T4, human GLP-1 receptor (hGLP-1R) (Homo sapiens, UniProt P43220); test: GLP-1 receptor assay, method A (CRE-luciferase reporter, BHK cells); format: cell-based
T4 construct: expressed in transfected cells
T4 sequence (P43220 24-463): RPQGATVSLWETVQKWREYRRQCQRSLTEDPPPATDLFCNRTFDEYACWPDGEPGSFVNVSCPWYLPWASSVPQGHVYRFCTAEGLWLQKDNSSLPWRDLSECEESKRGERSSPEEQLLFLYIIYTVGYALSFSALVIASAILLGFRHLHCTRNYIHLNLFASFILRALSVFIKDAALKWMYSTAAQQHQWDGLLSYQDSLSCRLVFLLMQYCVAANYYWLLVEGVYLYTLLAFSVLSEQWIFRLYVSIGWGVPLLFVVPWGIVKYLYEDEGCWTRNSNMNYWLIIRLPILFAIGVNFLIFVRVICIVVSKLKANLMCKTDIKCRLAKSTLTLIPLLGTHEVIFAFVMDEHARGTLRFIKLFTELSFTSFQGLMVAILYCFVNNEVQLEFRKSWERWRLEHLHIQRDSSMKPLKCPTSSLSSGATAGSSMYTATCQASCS
Outline: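 hGLP-1R BHK CRE-Luc cells, thawed, in DMEM (no phenol red)/10 mM HEPES/1% ovalbumin/0.1% Pluronic F-68 ± 1% (w/v) HSA; 3 h, 37° C, 5% CO2; steadylite Plus, 30 min RT, luminescence.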

[2] = molecular target: T5, human amylin receptor (hAMYR3) (Homo sapiens, UniProt O60896+P30988); test: Amylin receptor assay, method A (CRE-luciferase reporter, BHK cells); format: cell-based
T5 construct: host or cells: BHK cells (Hollex-1 line expressing hCTR(a) and CRE-Luc), further transfected with human RAMP3

[3] = molecular target: T1, human GIP receptor (hGIPR); test: GIP receptor assay, method A (CRE-luciferase reporter, BHK cells); format: cell-based
Outline: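 BHK cells co-expressing hGIPR and a CRE-luciferase reporter were stimulated for 3 h at 37 °C with a 7-point, 10-fold compound titration in duplicate. Buffer was DMEM, 10 mM HEPES, 1% ovalbumin, 0.1% Pluronic F-68, without HSA or with 1% (w/v) HSA. EC50 [pM] came from four-parameter logistic fits of luminescence.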

[4] = molecular target: T2, human amylin-3(a) receptor; test: cell-based or functional assay
human GLP-1 receptor = human GLP-1 receptor (human, UniProt P43220 24-463); test: cell-based or functional assay
human GIP receptor = molecular target: T3, human GIP receptor; test: cell-based or functional assay
[5] = hGLP-1R Potency, 1% HSA, EC50, method A, in the presence of 1% HSA
[6] = method A, absence of HSA, read-out: hGLP-1R Potency, no HSA, EC50
[7] = hAMYR3 Potency, 1% HSA, EC50, method A, in the presence of 1% HSA
[8] = method A, absence of HSA, read-out: hAMYR3 Potency, no HSA, EC50
[9] = hGIPR Potency, 1% HSA, EC50, method A, in the presence of 1% HSA
[10] = method A, absence of HSA, read-out: hGIPR Potency, no HSA, EC50

Row | Molecule | EC50 [1, 5] | EC50 [1, 6] | EC50 [2, 7] | EC50 [2, 8] | EC50 [3, 9] | EC50 [3, 10] | hAMYR3 Potency, no HSA, EC50 [pM] [4] | hGLP-1R Potency, no HSA, EC50 [pM] (human GLP-1 receptor) | hGIPR Potency, no HSA, EC50 [pM] (human GIP receptor)
1 | Y[Aib]EGTFTSDYSILLEEQAAREFIEWLLAGGPSSGAGQAPGQAPGASHLSTAQTQRLSAELHQLK([AEEA-AEEA-γGlu-C18 diacid])TLPRTETGSGSP-NH2 [Compound 102] | 47 pM | 11 pM | 134 pM | 3.26 pM | 12.2 pM | 2.24 pM |  |  | 
2 | Y[Aib]EGTFTSDYSILLEEQAAREFIEWLLAGGPSK([AEEA-AEEA-γGlu-C18 diacid])GEASELSTAALGRLSAELHRLATLPRTETGSGSP-NH2 [Compound 19] |  | 57.9 pM |  | 4.24 pM |  | 9.44 pM |  |  | 
3 | H[Aib]HGTFTSDYSILLEEQAAREFIEWLLAGGPSSGALQAPGQAPGASHLSTAQTARLSAELHRLATLPK([AEEA-AEEA-γGlu-C18 diacid])TETGSGSP-NH2 [Compound 107] | 13.9 pM | 4.1 pM | 93.1 pM | 3.07 pM | 8.76 pM | 3.87 pM |  |  | 
4 | H[Aib]HGTFTSDYSILLEEQAAREFIEWLLAGGPSK([AEEA-AEEA-γGlu-C18 diacid])GAPPPSGGGEASELSTAALGRLSAELHRLATLPRTETGSGSP-NH2 [Compound 30] |  | 6.37 pM |  | 2.28 pM |  | 6.8 pM |  |  | 
5 | B1 |  |  |  |  |  |  | 5.49 pM | 23.3 pM | 1.63 pM
6 | B2 |  |  |  |  |  |  | 10.9 pM | 11.3 pM | 35.8 pM
7 | B3 |  |  |  |  |  |  | 12 pM | 41.2 pM | 8.63 pM
8 | B4 |  |  |  |  |  |  | 3.8 pM | 3.68 pM | 6.3 pM
9 | B5 |  |  |  |  |  |  | 4.24 pM | 57.9 pM | 9.44 pM
10 | B6 |  |  |  |  |  |  | 2.26 pM | 37.9 pM | 2.4 pM
